Test results published in paper PMC3726394, “Selecting β-glucosidases to support cellulases in cellulose saccharification” (Biotechnology for Biofuels, 2013).
One block for each molecule: values may come before it.

Tests used:
Format in all cases: biochemical, Acremonium thermophilum
AtBG3 [1] = test system: T1, AtBG3; assay: pNP release, absorbance […] nm; fit with transglycosylation; settings: 25 °C, pH 5.0, 50 mM sodium acetate; hydrolysis constant, substrate inhibition by transglycosylation; read-out: KM(h)
T1 construct: secreted enzyme, heterologously expressed in Trichoderma reesei lacking four major cellulases; gel filtration; 101 kDa

AtBG3 [2] = test system: T1, AtBG3; assay: glucose release, hexokinase/G6PDH assay; fit with transglycosylation; settings: 25 °C, pH 5.0, 50 mM sodium acetate; hydrolysis constant, substrate inhibition by transglycosylation; read-out: KM(h)(mM)^a / AtBG3
AtBG3 [3] = molecular target: T1, AtBG3; assay: inhibition of MUG hydrolysis, fluorescence; settings: 25 °C, pH 5.0, 2.5 μM MUG; IC50 at [S] << KM taken as Ki; competitive inhibition assumed; read-out: AtBG3^b
Source text: inhibition of MUG hydrolysis, fluorescence on AtBG3

- Km (AtBG3 [1]): 95 ± 3 µM
SMILES: O=[N+]([O-])c1ccc(O[C@@H]2O[C@H](CO)[C@@H](O)[C@H](O)[C@H]2O)cc1 [para-nitrophenyl-β-glucoside]

- Km (AtBG3 [2]): 0.29 ± 0.07 mM
SMILES: OC[C@H]1O[C@@H](O[C@H]2[C@H](O)[C@@H](O)C(O)O[C@@H]2CO)[C@H](O)[C@@H](O)[C@@H]1O (stereo partly drawn) [cellobiose]

- Ki (AtBG3 [3]): 220 µM
SMILES: OC[C@H]1OC(O)[C@H](O)[C@@H](O)[C@@H]1O (stereo partly drawn) [glucose]
